Experiment [1] has as its target T1, wild type human RORγt LBD (Homo sapiens, UniProt P51449).
T1 construct: expressed in transfected cells; host or cells: HEK293T
T1 sequence (P51449 269-508 limits assumed): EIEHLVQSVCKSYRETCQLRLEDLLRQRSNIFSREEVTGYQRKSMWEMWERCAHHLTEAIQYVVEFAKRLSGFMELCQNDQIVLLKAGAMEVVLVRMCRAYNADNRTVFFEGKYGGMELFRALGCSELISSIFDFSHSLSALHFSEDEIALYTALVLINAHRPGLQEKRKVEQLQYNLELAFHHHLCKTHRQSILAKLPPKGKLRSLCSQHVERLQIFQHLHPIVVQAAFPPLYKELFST
The experiment in a line: RORγt Reporter Assay (GAL4-RORγt LBD luciferase in HEK293T cells). The experiment is classed as cell-based. The note with it: HEK293T cells; for IC50: compounds for 24 hours, read-out: RORγt reporter Assay, IC50; for inhibition at 6 µM: HEK-293T, read-out: RORγt reporter Assay, % inhibition @ 6 µM, @ 6 µM. The gist of the method:
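HEK293T cells transiently co-transfected with GAL4-DBD–human RORγt LBD (or AF2 mutant) and GAL4-responsive firefly luciferase reporter; renilla luciferase normalised transfection and viability. Compounds applied 24 h in 5% lipid-reduced FCS; firefly/renilla ratio plotted against concentration.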

For experiment [2], the target named is T2, wild type human RORγt ligand binding domain (RORγt LBD) (Homo sapiens, UniProt P51449).
T2 construct: His-tag (N); TurboTEV protease cleavage site (ENLYFQG) (N); made in house; host or cells: E. coli (pHIS1, modified pET expression vector)
T2 sequence (P51449 269-508 limits assumed): T1 sequence (P51449 269-508 limits assumed)
Put plainly: RORγt ThermoFluor® Assay (thermal shift, binding affinity). The note with it: pH 7.0, estimated from concentration response curves. The method in brief:
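Thermal shift assay on 0.065 mg/mL RORγt LBD with 60 µM 1,8-ANS in 100 mM Hepes pH 7.0, 10 mM NaCl, 2.5 mM GSH, 0.002% Tween-20. Heated at 1 °C/min, fluorescence read at 500 nm.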

Values joined by “and” are separate entries in the source; they are usually repeats but may differ in a detail not shown here. Identical values can stand only once. Counter-ions that a name gives are not always drawn. Bounds are passed on as bounds.

A word on the IC50: it is the midpoint of a concentration-inhibition curve. The term inhibition denotes the drop in the measured response relative to a control, in per cent. As usually defined, the Kd is the concentration at which binding is half-saturated. For `CON(C)c1nc2ccc(C(O)(c3ccc(C(F)(F)F)nc3)c3cncn3C)cc2c(N(C)OC)c1-c1ccccc1` (stereo not drawn) [Example 57, {2,4-Bis[methoxy(methyl)amino]-3-phenylquinolin-6-yl}(1-methyl-1H-imidazol-5-yl)[6-(trifluoromethyl)pyridin-3-yl]methanol], in experiment [1], the IC50 was 0.69 µM and the inhibition at 6 µM was 100%. For the same molecule, the dissociation constant (Kd) in experiment [2] was 0.58 µM.

For the molecule `CN(CCO)c1nc2ccc(C(O)(c3ccc(Cl)cc3)c3cncn3C)cc2c(Cl)c1-c1ccccc1` (stereo not drawn) [Example 46, 2-[{4-Chloro-6-[(4-chlorophenyl)(hydroxy)(1-methyl-1H-imidazol-5-yl)methyl]-3-phenylquinolin-2-yl}(methyl)amino]ethanol•TFA], in experiment [1], the IC50 was 0.83 µM and the inhibition at 6 µM was 106%. The dissociation constant (Kd) in experiment [2] is 0.23 µM.

Turning to `Cn1cncc1C(c1ccc(Cl)cc1)c1ccc2nc(C#N)c(-c3ccccc3)c(Cl)c2c1` (stereo not drawn) [Example 72, 4-Chloro-6-((4-chlorophenyl)(1-methyl-1H-imidazol-5-yl)methyl)-3-phenylquinoline-2-carbonitrile•TFA], in experiment [1], the IC50 turned out to be 0.63 µM and the inhibition at 6 µM was 100%. Further, the dissociation constant (Kd) in experiment [2] was 0.89 µM.

Regarding `COc1nc2ccc(C(O)(c3cnnn3C)c3cnc(C)n3C)cc2c(Cl)c1-c1ccccc1` (stereo not drawn) [Example 41a, (4-Chloro-2-methoxy-3-phenylquinolin-6-yl)(1,2-dimethyl-1H-imidazol-5-yl)(1-methyl-1H-1,2,3-triazol-5-yl)methanol•TFA], in experiment [1], the half-inhibitory concentration (IC50) is 0.32 µM and the inhibition at 6 µM came out at 98%. Further, the Kd in experiment [2] was 0.089 µM.

For `CC(=O)N1CCC(C(O)(c2ccc3nc(C(F)(F)F)c(-c4ccccc4)c(Cl)c3c2)c2cncn2C)CC1` (single isomer, unassigned) [Example 34b, 1-(4-((4-Chloro-3-phenyl-2-(trifluoromethyl)quinolin-6-yl)(hydroxy)(1-methyl-1H-imidazol-5-yl)methyl)piperidin-1-yl)ethanone], in experiment [1], the concentration for half-maximal inhibition (IC50) worked out at 1 µM and the inhibition at 6 µM amounted to 90%. The Kd in experiment [2] is 0.45 µM.

In the case of `CC(=O)N1CCC(C(O)(c2ccc(C(F)(F)F)nc2)c2cc(C)c3nc(C#N)c(-c4ccccc4)c(C#N)c3c2)CC1` (single isomer, unassigned) [Example 27c, 6-((1-Acetylpiperidin-4-yl)(hydroxy)(6-(trifluoromethyl)pyridin-3-yl)methyl)-8-methyl-3-phenylquinoline-2,4-dicarbonitrile], in experiment [1], the “RORγt reporter Assay, % inhibition @ 6 µM” value was determined as 96% and the IC50 worked out at 2.1 µM. Moreover, the Kd in experiment [2] was 0.82 µM.

Consider `Cc1nc(C)c(C(O)(c2ccc3nc(C#N)c(-c4ccccc4)c(C#N)c3c2)c2cnnn2C)s1` (single isomer, unassigned) [Example 47b, 6-((2,4-Dimethylthiazol-5-yl)(hydroxy)(1-methyl-1H-1,2,3-triazol-5-yl)methyl)-3-phenylquinoline-2,4-dicarbonitrile], for which, in experiment [1], the concentration for half-maximal inhibition (IC50) is roughly 2 µM and the inhibition at 6 µM was 80%. Besides, in experiment [2], the Kd was 0.93 µM.

Turning to `Cc1cc(C(O)(c2ccc(C(F)(F)F)nc2)c2cncn2C)cc2c(C#N)c(-c3ccccc3)c(C#N)nc12` (single isomer, unassigned) [Example 25b, 6-(Hydroxy(1-methyl-1H-imidazol-5-yl)(6-(trifluoromethyl)pyridin-3-yl)methyl)-8-methyl-3-phenylquinoline-2,4-dicarbonitrile], in experiment [1], the half-inhibitory concentration (IC50) was roughly 2 µM and the inhibition at 6 µM is 87%. Besides, in experiment [2], the dissociation constant Kd was 3.5 µM.

`Cn1cncc1C(O)(c1ccc(C(F)(F)F)nc1)c1ccc2nc(OCC(F)(F)F)c(-c3ccccc3)c(Cl)c2c1` (stereo not drawn) [Example 54, [4-Chloro-3-phenyl-2-(2,2,2-trifluoroethoxy)quinolin-6-yl](1-methyl-1H-imidazol-5-yl)[6-(trifluoromethyl)pyridin-3-yl]methanol]: in experiment [1], the IC50 came out at 0.44 µM and the inhibition at 6 µM was 102%. The Kd in experiment [2] was 0.38 µM.

As to `CSc1nc2ccc(C(O)(c3sc(C)nc3C)c3cncn3C)cc2c(SC)c1-c1ccccc1` (stereo not drawn) [Example 42, (2,4-Bis(methylthio)-3-phenylquinolin-6-yl)(2,4-dimethylthiazol-5-yl)(1-methyl-1H-imidazol-5-yl)methanol•TFA], in experiment [1], the IC50 was 0.017 µM and the inhibition at 6 µM was 103%. The Kd in experiment [2] is 0.00051 µM.

`COc1nc2ccc(C(O)(c3ccc(C(F)(F)F)nc3)c3cncn3C)cc2c(Cl)c1-c1cncc(S(C)(=O)=O)c1` (stereo not drawn) [Example 13, {4-Chloro-2-methoxy-3-[5-(methylsuflonyl)pyridin-3-yl]quinolin-6-yl)(1-methyl-1H-imidazol-5-yl)[6-(trifluoromethyl)pyridin-3-yl]methanol•TFA]: in experiment [1], the IC50 was greater than 6 µM and the inhibition at 6 µM was -52%. Besides, the dissociation constant (Kd) in experiment [2] was 2 µM.

In the case of `CC(=O)N1CCC(C(O)(c2ccccc2)c2cc(C)c3nc(C#N)c(-c4ccccc4)c(C#N)c3c2)CC1` (single isomer, unassigned) [Example 21b, 6-((1-Acetylpiperidin-4-yl)(hydroxy)(phenyl)methyl)-8-methyl-3-phenylquinoline-2,4-dicarbonitrile], in experiment [1], the concentration for half-maximal inhibition (IC50) came out at 1.6 µM and the inhibition at 6 µM is 87%. Moreover, the Kd in experiment [2] is 1.3 µM.

Take `Cc1nc(C)c(C(O)(c2ccc(Cl)cc2)c2ccc3nc(Cl)c(-c4ccccc4)c(Cl)c3c2)s1` (stereo not drawn) [Example 87, (4-Chlorophenyl)(2,4-dichloro-3-phenylquinolin-6-yl)(2,4-dimethylthiazol-5-yl)methanol]: in experiment [1], the IC50 was greater than 6 µM and the inhibition at 6 µM turned out to be 56%. The Kd in experiment [2] was 12 µM.

`Cn1cncc1C(O)(c1ccc(C#N)cc1)c1ccc2nc(C(F)(F)F)c(-c3ccccc3)c(C#N)c2c1` (stereo not drawn) [Example 28, 6-((4-Cyanophenyl)(hydroxy)(1-methyl-1H-imidazol-5-yl)methyl)-3-phenyl-2-(trifluoromethyl)quinoline-4-carbonitrile•TFA]: in experiment [1], the half-inhibitory concentration (IC50) was 0.024 µM and ~0.04 µM; the inhibition at 6 µM stood at 96%. The Kd in experiment [2] is 0.046 µM.

For `COc1c(-c2ccccc2)c(Cl)nc2ccc(C(O)(c3cnnn3C)c3cnc(C)n3C)cc12` (stereo not drawn) [Example 40a, (2-Chloro-4-metboxy-3-phenylquinolin-6-yl)(1,2-dimethyl-1H-imidazol-5-yl)(1-methyl-1H-1,2,3-triazol-5-yl)methanol•TFA], in experiment [1], the IC50 is 0.023 µM and the inhibition at 6 µM amounted to 104%. The Kd in experiment [2] is 0.0015 µM.

`COc1nc2ccc(C(O)(c3ccc(C(F)(F)F)nc3)c3cncn3C)cc2c(Cl)c1-c1ccc(Cl)s1` (stereo not drawn) [Example 14a, [4-Chloro-3-(5-chlorothiophen-2-yl)-2-methoxyquinofin-6-yl](1-methyl-1H-imidazol-5-yl)[6-(trifluoromethyl)pyridin-3-yl]methanol•TFA]: in experiment [1], the IC50 came to 1.1 µM and the inhibition at 6 µM was found to be 55%. In addition, the equilibrium dissociation constant (Kd) in experiment [2] is 0.0067 µM.

On to `CN(C)c1nc2ccc(C(O)(c3ccncc3)c3ccccn3)cc2c(Cl)c1-c1ccccc1` (stereo not drawn) [Example 84, (4-Chloro-2-(dimethylamino)-3-phenylquinolin-6-yl)(pyridin-2-yl)(pyridin4-yl)methanol•TFA], for which, in experiment [1], the half-maximal inhibitory concentration (IC50) turned out to be 3.5 µM and the inhibition at 6 µM is 93%. For the same molecule, in experiment [2], the Kd was 17 µM.

Take `COc1ncc(-c2c(OC)nc3ccc(C(O)(c4ccc(C(F)(F)F)nc4)c4cncn4C)cc3c2Cl)cn1` (stereo not drawn) [Example 15, [4-Chloro-2-methoxy-3-(2-methoxypyrimidin-5-yl)quinolin-6-yl](1-methyl-1H-imidazol-5-yl)[6-(trifluoromethyl)pyridin-3-yl]methanol•TFA]: in experiment [1], the concentration for half-maximal inhibition (IC50) was greater than 6 µM and the inhibition at 6 µM is -29%. The Kd in experiment [2] was 0.021 µM.

`COc1nc2ccc(C(O)(c3sc(C)nc3C)c3cnnn3C)cc2c(Cl)c1-c1ccccc1` (stereo not drawn) [Example 35, (4-Chloro-2-methoxy-3-phenylquinolin-6-yl)(2,4-dimethylthiazol-5-yl)(1-methyl-1H-1,2,3-triazol-5-yl)methnol•TFA]: in experiment [1], the IC50 turned out to be 0.16 µM and the inhibition at 6 µM turned out to be 101%. Also, the Kd in experiment [2] is 0.018 µM.

With `Cn1cncc1C(O)(c1ccc2nc(Cl)c(-c3ccccc3)c(Cl)c2c1)c1ncccn1` (stereo not drawn) [Example 55, (2,4-Dichloro-3-phenylquinolin-6-yl)(1-methyl-1H-imidazol-5-yl)pyrimidin-2-ylmethanol], in experiment [1], the IC50 was roughly 3 µM and the inhibition at 6 µM stood at 70%. Further, the Kd in experiment [2] is 3.3 µM.

With `Cn1cncc1C(O)(c1ccc2nc(C#N)c(-c3ccccc3)c(C#N)c2c1)c1ccccn1` (single isomer, unassigned) [Example 18b, 6-(Hydroxy(1-methyl-1H-imidazol-5-yl)(pyridin-2-yl)methyl)-3-phenylquinoline-2,4-dicarbonitrile], in experiment [1], the “RORγt reporter Assay, % inhibition @ 6 µM” value is recorded as 40% and the IC50 was greater than 6 µM. Besides, the Kd in experiment [2] is 14 µM.
